According to PubChem BioAssay AID1963827 (Molecular Pharmacology Branch, DTP, NCI, 2024):

Tested on: 994946-033-R-J1-PDC complex spheroid viability
Test: Anticancer human tumor 994946-033-R-J1-PDC patient-derived melanoma cell line growth inhibition [POLQ]
Settings: for IC50: curve of first compound; for viability, T/C: stronger effect = lower value
Description: Multicellular complex tumor spheroid response to Polymerase (POL) inhibitors (novobiocin, ART-558, RP6685) in combination with a variety of drugs and investigational agents in selected tumor cell lines
The POL inhibitors (novobiocin, ART-558, and RP6685) were evaluated both individually and in combination with standard of care and investigational anticancer small molecules within a complex spheroid model of solid tumors. . Complex spheroids include a stromal component modeled by human endothelial cells (HUVEC) and fibroblasts modeled by human mesenchymal stem cells (MSCs). The concentration ranges selected for each drug and investigational agent were based upon clinically achievable concentrations if the clinical Cmax of the agent was known.
Compounds. The drugs and investigational agents: novobiocin (NSC847541), ART-558 (NSC835418), RP-6685 (NSC848927), peposertib (NSC802822), ceralasertib (NSC780249), elimusertib (NSC800525), camonsertib (NSC841442), AZD-1390 (NSC803789), olaparib (NSC753686), talazoparib (NSC767125), rucaparib (NSC756644), sotorasib (NSC818433), MRTX-1133 (NSC836407), SN-38 (NSC673596), topotecan (NSC609699), epotoside (NSC141540), doxorubicin (NSC123127), gemcitabine (NSC613327), 5-fluorouracil (NSC19893), paclitaxel (NSC125973), vemurafenib (NSC761431), MSA-2 (NSC828583), SN-011 (NSC837082), adavosertib (NSC754352), prexasertib (NSC758257), carboplatin (NSC241240) and oxaliplatin (NSC266046), were obtained from the National Cancer Institute (NCI) Developmental Therapeutics Program Chemical Repository (21). The FDA-approved anticancer drug set is available from the Developmental Therapeutics Program at https://dtp.cancer.gov/organization/dscb/obtaining/. […] The stock solutions were prepared in dimethyl sulfoxide (DMSO, Sigma-Aldrich, St. Louis, MO, cat. D2650), except for the platinum compounds which were prepared in saline (Quality Biological, Gaithersburg, MD, cat. 114-055-101), at 800-fold the tested concentration and stored at -70 degrees C prior to their use. All drugs and investigational agents were tested over a range starting from a high concentration at or near the clinical Cmax and decreasing in half-log increments. If the clinical Cmax for an agent had not been determined, the highest concentration tested was 10 microM, except for SN-38, which was tested at a high concentration of 1 microM.
Cell Culture. All cells were maintained in an incubator at 37 degrees C and 5% CO2 with 95% humidity. The PDC lines were cultured according to standard operating procedures established by the NCI PDMR (https://pdmr.cancer.gov). Table 3 of the manuscript, lists the cell lines along with the number of the three cell types plated to form the mct-spheroids and media for tumor cell growth. After thawing, all PDC lines, except 997537-175-T-J1-PDC and 415267-285-R-J2-PDC, were cultured in Matrigel-coated flasks prepared with a working solution of 1X Ham's F-12 nutrient mix, without supplementation (Thermo Fisher Scientific, cat. 11765054), 100 U/mL penicillin-streptomycin (Thermo Fisher Scientific, cat. 15140122), and 2.5% Matrigel (Corning Inc., Corning, NY, cat. 354248) for the first three passages. The two PDC lines 997537-175-T-J1-PDC and 415267-285-R-J2-PDC were cultured on uncoated flasks. The 857933-349-R-J2-PDC line was cultured in 6C/Colon 1B media containing advanced DMEM/F-12 (Thermo Fisher Scientific, cat. 12634028), 10 mM HEPES (Thermo Fisher Scientific, cat. 15630080), 1X GlutaMAX supplement (Thermo Fisher Scientific, cat. 35050061), 0.1 mg/mL primocin (InvivoGen, San Diego, CA, cat. ant-pm-2), 10% defined fetal bovine serum, heat inactivated (HyClone Laboratories Inc., Logan, UT, cat. SH30070.03HI), 50% L-WRN conditioned media (ATCC, cat. CRL-3276), 1.25 mM N-Acetyl-L-cysteine (Sigma-Aldrich, cat. A9165), 10 mM nicotinamide (Sigma-Aldrich, cat. N0636), 1X B-27 supplement (Thermo Fisher Scientific, cat. 17504044), 1X N-2 supplement (Thermo Fisher Scientific, cat. […]
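Note: spheroids exposed to drugs for 7 days.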
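Throughout, for viability, T/C: 100% = DMSO vehicle treated spheroids.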

Compound `Nc1ccn(C2OC(CO)C(O)C2(F)F)c(=O)n1` (configuration not stated) + Cc1cccc(N(C)C(=O)C2C(O)CCN2c2nc(C)cc(C(F)(F)F)c2C#N)c1 has an IC50 (second compound 0.0316 µM) of under 31.6 nM, an IC50 (second compound 0.1 µM) of under 31.6 nM and an IC50 (second compound 0.316 µM) of under 31.6 nM. The IC50 (second compound 1 µM) was under 31.6 nM, the IC50 (second compound 3.16 µM) was under 31.6 nM and the IC50 (second compound 10 µM) was under 31.6 nM. For the same compound, the viability, T/C (second compound 0.0316 µM, first compound 0.0316 µM) was 26.7%, the viability, T/C (second compound 0.0316 µM, first compound 0.1 µM) was 6.28% and the viability, T/C (second compound 0.0316 µM, first compound 0.316 µM) was 4.88%. It also gave a viability, T/C (second compound 0.0316 µM, first compound 1 µM) of 6.63%, a viability, T/C (second compound 0.0316 µM, first compound 3.16 µM) of 3.54% and a viability, T/C (second compound 0.0316 µM, first compound 10 µM) of 2.78%. For the same compound, the viability, T/C (second compound 0.1 µM, first compound 0.0316 µM) was 49.3%, the viability, T/C (second compound 0.1 µM, first compound 0.1 µM) was 5.24% and the viability, T/C (second compound 0.1 µM, first compound 0.316 µM) was 5.13%. For the same compound, the viability, T/C (second compound 0.1 µM, first compound 1 µM) was 4.71%, the viability, T/C (second compound 0.1 µM, first compound 3.16 µM) was 4.54% and the viability, T/C (second compound 0.1 µM, first compound 10 µM) was 2.88%. For the same compound, the viability, T/C (second compound 0.316 µM, first compound 0.0316 µM) was 24.7%, the viability, T/C (second compound 0.316 µM, first compound 0.1 µM) was 5.51% and the viability, T/C (second compound 0.316 µM, first compound 0.316 µM) was 5.07%. For the same compound, the viability, T/C (second compound 0.316 µM, first compound 1 µM) was 4.92%, the viability, T/C (second compound 0.316 µM, first compound 3.16 µM) was 4.06% and the viability, T/C (second compound 0.316 µM, first compound 10 µM) was 1.82%. It also gave a viability, T/C (second compound 1 µM, first compound 0.0316 µM) of 23.1%, a viability, T/C (second compound 1 µM, first compound 0.1 µM) of 7.5% and a viability, T/C (second compound 1 µM, first compound 0.316 µM) of 4.98%. It also gave a viability, T/C (second compound 1 µM, first compound 1 µM) of 4.8%, a viability, T/C (second compound 1 µM, first compound 3.16 µM) of 4.33% and a viability, T/C (second compound 1 µM, first compound 10 µM) of 2.48%. The viability, T/C (second compound 3.16 µM, first compound 0.0316 µM) was 39.7%, the viability, T/C (second compound 3.16 µM, first compound 0.1 µM) was 6.77% and the viability, T/C (second compound 3.16 µM, first compound 0.316 µM) was 4.52%. The viability, T/C (second compound 3.16 µM, first compound 1 µM) was 5.28%, the viability, T/C (second compound 3.16 µM, first compound 3.16 µM) was 4.61% and the viability, T/C (second compound 3.16 µM, first compound 10 µM) was 2.97%. For the same compound, the viability, T/C (second compound 10 µM, first compound 0.0316 µM) was 48.6%, the viability, T/C (second compound 10 µM, first compound 0.1 µM) was 13.3% and the viability, T/C (second compound 10 µM, first compound 0.316 µM) was 6.55%. The viability, T/C (second compound 10 µM, first compound 1 µM) was 5.55%, the viability, T/C (second compound 10 µM, first compound 3.16 µM) was 5.13% and the viability, T/C (second compound 10 µM, first compound 10 µM) was 1.86%.
